Measurements: patent US20140004207A1, “Analgesic Apatitic Calcium-Phosphate Cement” (priority 2008, published 2014)

Experiments:
[1] = HPLC and MS analysis of bupivacaine after association and release from CDA; assay type: physicochemical; conditions: cold isostatic compression; three days in water at 37° C.; HPLC and MS vs native molecule
Procedure: Bupivacaine-loaded CDA (400 mg) was stirred in 5 ml of water for three days at 37° C. The aqueous solution was passed through a microfiltration membrane with a pore size of 0.22 μm. Several aliquots of this solution were diluted to working concentration with HPLC. An aliquot of this solution (1 ml) was extracted with 1 ml of dichloromethane (HiPerSolv for HPLC, VWR-BDH). The organic phase was dried over Na2SO4 for further MS studies. HPLC HP 1100 (C18 column, Inertsil 5 ODS-3), flow: 0.5 ml mn^−1, solvent: acetonitrile/water [80/20], injection volume: 10 μl, detection: 230 nm). The liquid phase was prepared by mixing Acetonitrile for HPLC Gradient Grade (VWR-BDH-Prolabo) with pure water. A thermo Electron Corporation DSQ II bench-top quadruple mass spectrometer fitted with a direct sample probe or GC, with chemical ionization (CI), was used for data acquisition and processing.

[2] = Stability of bupivacaine within the composition on storage; assay type: physicochemical; conditions: 4° C.
Procedure: The same method was applied to determine the lidocaine release. A first assay confirmed that the bupivacaine within the composition is stable for 3 months at 4° C.

[3] = continuous intravenous administration; cited from earlier work
[4] = intrabone injection, percutaneous vertebroplastics; cited from earlier work

Row | integrity of bupivacaine after association with CDA granules and release [1] | stability of bupivacaine within the composition [2] | SMILES | postoperative morphine intake [3] | effectiveness versus antalgic protocol comprising nalbuphine and paracetamol [4] | serum levels of lidocaine [4]
1 | remained unchanged | 3 months | CCCCN1CCCCC1C(=O)Nc1c(C)cccc1C (centres unmarked) [bupivacaine] | – | – | –
2 | – | – | CCN(CC)CC(=O)Nc1c(C)cccc1C [lidocaine] | reduction of the postoperative morphine intake | comparable effectiveness | much below the toxic level
